Results as given in PMC11487561 (ACS Chemical Neuroscience, 2024).

Tests used:
[1] = system: cardiac ion channels; assay: Charles River ChanTest Cardiac Channel Panel (patch clamp), whole panel; format: cell-based, human; details: 10 μM
Method: page 17: Table S3. Cardiac Ion Channel Panel - Charles River Laboratories for VU6016235 Ion Channel Concentration Mean % Standard Standard n (μM) Inhibition Deviation Error hCav1.2 10 13.9 8.9 5.1 3 hCav3.2 10 6.7 2.7 1.4 4 hHCN2 10 2.6 1.9 1.1 3 hERG 10 10.9 0.9 0.4 4 hKv1.5 10 1.3 1.8 0.9 4 […] 10 4.1 5.6 2.8 4 hKv1.3 10 9 2.9 1.7 3 hNav1.5 (Tonic) 10 5.8 0.6 0.4 3 […] (Phasic) The in vitro effects of VU6016235 were evaluated at room temperature using the QPatch HT® (Sophion Bioscience A/S, Denmark), an automatic parallel patch clamp system. VU6016235 was evaluated at a concentration of 10 μM and tested in at least 3 cells (n ≥ 3). […] Next, rats were injected subcutaneously with vehicle or a dose of 0.75 mg/kg amphetamine and then monitored for an additional 60 min. Changes in locomotor activity were recorded for a total of 120 min. Locomotor data were expressed as the number of photobeam breaks/5 min intervals across the 120-min test session or as the total ambulation, calculated as sum of photobeam beam breaks from the time of amphetamine administration (60 min) until the end of the study (120 min). Time course data were analyzed by two-way ANOVA with main effects of treatment and time; changes in total ambulation were analyzed by one-way ANOVA followed by Dunnett's post hoc test (GraphPad Prism 7 [GraphPad Software, San Diego, CA]). […]

[2] = biological target: human M2 (Homo sapiens, UniProt P08172); assay: Calcium mobilization assay, muscarinic selectivity; format: cell-based
Sequence of human M2 (P08172 whole entry): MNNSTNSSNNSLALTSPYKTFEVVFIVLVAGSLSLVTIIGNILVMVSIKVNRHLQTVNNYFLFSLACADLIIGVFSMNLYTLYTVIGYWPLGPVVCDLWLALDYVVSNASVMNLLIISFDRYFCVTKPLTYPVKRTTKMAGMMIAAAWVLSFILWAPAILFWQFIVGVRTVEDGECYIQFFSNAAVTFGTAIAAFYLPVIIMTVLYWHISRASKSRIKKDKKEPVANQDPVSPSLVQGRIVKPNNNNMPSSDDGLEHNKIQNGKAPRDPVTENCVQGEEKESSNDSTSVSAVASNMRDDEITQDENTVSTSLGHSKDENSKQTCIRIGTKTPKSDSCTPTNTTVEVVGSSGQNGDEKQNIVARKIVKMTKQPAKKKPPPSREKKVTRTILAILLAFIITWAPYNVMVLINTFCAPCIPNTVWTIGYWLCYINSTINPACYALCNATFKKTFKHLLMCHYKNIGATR

[3] = system: Calcium Channel L-Type, Benzothiazepine; assay: Lead Profiling Screen – Eurofins Panlabs; format: binding, rat
[4] = biological target: T1, Dopamine D1 (Homo sapiens, UniProt P21728); assay: Lead Profiling Screen – Eurofins Panlabs; format: binding; details: read-out: % inh at 10 μM
T1 construct: Eurofins Panlabs (contract screen)

[5] = system: Transporter, GABA; assay: Lead Profiling Screen – Eurofins Panlabs; format: binding, rat
[6] = biological target: T2, Dopamine D2S (Homo sapiens, UniProt P14416); assay: Lead Profiling Screen – Eurofins Panlabs; format: binding; details: read-out: % inh at 10 μM
T2 construct: Eurofins Panlabs (contract screen)
T2 sequence (P14416 1-414 isoform P14416-2): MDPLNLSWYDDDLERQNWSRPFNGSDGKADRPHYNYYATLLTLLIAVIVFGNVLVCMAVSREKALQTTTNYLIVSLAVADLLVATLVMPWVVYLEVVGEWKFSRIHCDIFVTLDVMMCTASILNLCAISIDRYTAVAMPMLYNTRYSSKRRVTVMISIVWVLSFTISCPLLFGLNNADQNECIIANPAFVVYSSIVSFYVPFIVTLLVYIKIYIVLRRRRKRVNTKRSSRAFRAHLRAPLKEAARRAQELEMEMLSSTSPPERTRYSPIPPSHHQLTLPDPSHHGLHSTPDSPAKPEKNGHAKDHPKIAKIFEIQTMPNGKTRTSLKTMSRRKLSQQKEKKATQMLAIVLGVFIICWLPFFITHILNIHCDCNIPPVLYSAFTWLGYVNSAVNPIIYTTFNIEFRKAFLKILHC

[7] = biological target: T3, Adenosine A2A (Homo sapiens, UniProt P29274); assay: Lead Profiling Screen – Eurofins Panlabs; format: binding; details: read-out: % inh at 10 μM
T3 construct: Eurofins Panlabs
T3 sequence (P29274 whole entry): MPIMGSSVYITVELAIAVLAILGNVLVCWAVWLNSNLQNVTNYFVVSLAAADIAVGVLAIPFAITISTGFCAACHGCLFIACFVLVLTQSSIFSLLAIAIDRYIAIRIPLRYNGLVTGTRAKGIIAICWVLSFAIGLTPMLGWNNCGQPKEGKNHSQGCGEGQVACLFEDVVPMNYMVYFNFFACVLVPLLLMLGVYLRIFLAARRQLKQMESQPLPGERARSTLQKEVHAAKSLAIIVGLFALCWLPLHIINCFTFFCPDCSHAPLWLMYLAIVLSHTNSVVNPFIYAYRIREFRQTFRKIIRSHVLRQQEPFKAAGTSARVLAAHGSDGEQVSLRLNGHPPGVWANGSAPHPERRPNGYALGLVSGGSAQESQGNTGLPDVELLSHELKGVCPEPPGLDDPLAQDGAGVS

[8] = biological target: Histamine H3 (Homo sapiens, UniProt Q9Y5N1); assay: Lead Profiling Screen – Eurofins Panlabs; format: binding; details: read-out: % inh at 10 μM
Sequence of Histamine H3 (Q9Y5N1 whole entry): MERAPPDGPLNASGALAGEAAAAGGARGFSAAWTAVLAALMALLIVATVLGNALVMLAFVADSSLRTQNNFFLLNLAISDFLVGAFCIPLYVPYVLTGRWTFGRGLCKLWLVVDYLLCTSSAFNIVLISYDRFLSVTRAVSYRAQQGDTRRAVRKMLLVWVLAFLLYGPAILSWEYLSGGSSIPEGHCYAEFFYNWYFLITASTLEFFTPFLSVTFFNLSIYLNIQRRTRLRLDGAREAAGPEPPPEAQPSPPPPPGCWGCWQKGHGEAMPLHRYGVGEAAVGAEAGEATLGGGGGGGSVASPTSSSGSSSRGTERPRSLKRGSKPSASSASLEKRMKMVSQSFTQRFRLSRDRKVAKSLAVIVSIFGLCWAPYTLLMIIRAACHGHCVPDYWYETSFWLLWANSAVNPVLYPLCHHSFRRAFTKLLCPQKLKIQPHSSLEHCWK

[9] = MDCK-MDR1 permeability assay; format: in vitro ADME; details: dog
[10] = system: Nicotinic Acetylcholine; assay: Lead Profiling Screen – Eurofins Panlabs; format: binding, human
[11] = biological target: Prostanoid EP4 (Homo sapiens, UniProt P35408); assay: Lead Profiling Screen – Eurofins Panlabs; format: binding; details: read-out: % inh at 10 μM
Sequence of Prostanoid EP4 (P35408 whole entry): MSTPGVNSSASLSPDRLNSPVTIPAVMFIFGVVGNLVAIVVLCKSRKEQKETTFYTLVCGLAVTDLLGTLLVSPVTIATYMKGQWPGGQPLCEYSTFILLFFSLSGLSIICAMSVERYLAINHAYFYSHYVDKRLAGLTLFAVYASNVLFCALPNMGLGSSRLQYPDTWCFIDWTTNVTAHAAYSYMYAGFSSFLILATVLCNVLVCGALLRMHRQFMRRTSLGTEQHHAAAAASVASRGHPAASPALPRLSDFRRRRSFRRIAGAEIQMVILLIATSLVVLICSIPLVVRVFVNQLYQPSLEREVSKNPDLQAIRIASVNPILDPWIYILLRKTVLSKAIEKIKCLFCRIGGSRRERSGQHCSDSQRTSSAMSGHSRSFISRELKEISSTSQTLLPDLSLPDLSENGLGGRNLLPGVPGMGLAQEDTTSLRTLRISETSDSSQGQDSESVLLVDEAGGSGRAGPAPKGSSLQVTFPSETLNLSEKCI

[12] = biological target: Transporter, Dopamine (DAT) (Homo sapiens, UniProt Q01959); assay: Lead Profiling Screen – Eurofins Panlabs; format: binding; details: read-out: % inh at 10 μM
[13] = system: Purinergic P2X; assay: Lead Profiling Screen – Eurofins Panlabs; format: binding, rabbit
[14] = biological target: Leukotriene, Cysteinyl CysLT1 (Homo sapiens, UniProt Q9Y271); assay: Lead Profiling Screen – Eurofins Panlabs; format: binding; details: read-out: % inh at 10 μM
Sequence of Leukotriene, Cysteinyl CysLT1 (Q9Y271 whole entry): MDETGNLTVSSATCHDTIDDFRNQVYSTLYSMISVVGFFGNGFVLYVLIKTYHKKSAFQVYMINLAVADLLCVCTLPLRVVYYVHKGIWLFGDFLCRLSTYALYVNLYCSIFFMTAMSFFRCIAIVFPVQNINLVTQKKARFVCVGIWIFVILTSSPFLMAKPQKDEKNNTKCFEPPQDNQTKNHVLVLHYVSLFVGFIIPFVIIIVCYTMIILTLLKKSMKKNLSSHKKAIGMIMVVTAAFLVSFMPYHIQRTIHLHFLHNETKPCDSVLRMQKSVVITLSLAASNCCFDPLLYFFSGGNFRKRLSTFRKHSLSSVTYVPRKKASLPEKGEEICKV

[15] = biological target: Histamine H2 (Homo sapiens, UniProt P25021); assay: Lead Profiling Screen – Eurofins Panlabs; format: binding; details: read-out: % inh at 10 μM
Sequence of Histamine H2 (P25021 whole entry): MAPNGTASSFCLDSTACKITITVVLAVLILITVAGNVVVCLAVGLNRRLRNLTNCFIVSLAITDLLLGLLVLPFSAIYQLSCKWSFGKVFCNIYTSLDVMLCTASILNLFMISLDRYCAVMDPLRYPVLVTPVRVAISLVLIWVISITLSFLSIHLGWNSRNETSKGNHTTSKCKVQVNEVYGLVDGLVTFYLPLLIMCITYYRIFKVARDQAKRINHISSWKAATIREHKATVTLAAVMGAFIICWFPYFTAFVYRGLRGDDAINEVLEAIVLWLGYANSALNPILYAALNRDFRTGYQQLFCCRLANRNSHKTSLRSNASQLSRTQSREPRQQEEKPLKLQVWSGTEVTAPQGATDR

[16] = biological target: T4, GABAB1A (Homo sapiens, UniProt Q9UBS5); assay: Lead Profiling Screen – Eurofins Panlabs; format: binding; details: read-out: % inh at 10 μM
T4 construct: Eurofins Panlabs (contract screen)

[17] = system: Glutamate, NMDA, Phencyclidine; assay: Lead Profiling Screen – Eurofins Panlabs; format: binding, rat
[18] = system: Purinergic P2Y; assay: Lead Profiling Screen – Eurofins Panlabs; format: binding, rat
[19] = system: Androgen (Testosterone); assay: Lead Profiling Screen – Eurofins Panlabs; format: binding, human
[20] = system: Calcium Channel L-Type, Dihydropyridine; assay: Lead Profiling Screen – Eurofins Panlabs; format: binding, rat
[21] = biological target: Sigma σ1 (Homo sapiens, UniProt Q99720); assay: Lead Profiling Screen – Eurofins Panlabs; format: binding; details: read-out: % inh at 10 μM
Sequence of Sigma σ1 (Q99720 whole entry): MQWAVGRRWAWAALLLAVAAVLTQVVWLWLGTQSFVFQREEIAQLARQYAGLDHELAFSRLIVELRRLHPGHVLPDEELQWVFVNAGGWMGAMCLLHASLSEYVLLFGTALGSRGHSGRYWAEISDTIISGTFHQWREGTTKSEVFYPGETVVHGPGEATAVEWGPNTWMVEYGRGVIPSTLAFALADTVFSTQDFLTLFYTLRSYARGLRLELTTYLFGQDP

[22] = biological target: T5, Endothelin ETB (Homo sapiens, UniProt P24530); assay: Lead Profiling Screen – Eurofins Panlabs; format: binding; details: read-out: % inh at 10 μM
T5 construct: Eurofins Panlabs (contract screen)
T5 sequence (P24530 27-442): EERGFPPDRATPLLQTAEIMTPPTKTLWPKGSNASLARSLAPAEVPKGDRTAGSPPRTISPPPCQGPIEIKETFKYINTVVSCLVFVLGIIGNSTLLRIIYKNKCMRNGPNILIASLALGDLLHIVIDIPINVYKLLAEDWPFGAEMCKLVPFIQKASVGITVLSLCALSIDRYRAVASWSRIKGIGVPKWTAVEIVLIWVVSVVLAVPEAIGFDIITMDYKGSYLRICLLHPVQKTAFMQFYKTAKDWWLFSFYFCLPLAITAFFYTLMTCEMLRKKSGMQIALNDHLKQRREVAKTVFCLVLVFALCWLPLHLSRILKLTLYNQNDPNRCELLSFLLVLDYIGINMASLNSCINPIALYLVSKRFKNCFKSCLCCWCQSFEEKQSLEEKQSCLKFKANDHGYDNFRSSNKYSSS

[23] = biological target: Muscarinic M1 (Homo sapiens, UniProt P11229); assay: Lead Profiling Screen – Eurofins Panlabs; format: binding; details: read-out: % inh at 10 μM
[24] = system: Dopamine D4.2; assay: Lead Profiling Screen – Eurofins Panlabs; format: binding, human
[25] = biological target: T6, Adrenergic α1A (Rattus norvegicus, UniProt P43140); assay: Lead Profiling Screen – Eurofins Panlabs; format: binding; details: read-out: % inh at 10 μM
T6 construct: Eurofins Panlabs

[26] = biological target: T7, CYP 2C9 (Homo sapiens, UniProt P11712); assay: P450 inhibition in pooled human liver microsomes; format: in vitro ADME; details: pooled HLM, NADPH, CYP-specific probe substrates
T7 construct: from tissue; host or cells: pooled human liver microsomes (according to the earlier reading)
T7 sequence (P11712 whole entry): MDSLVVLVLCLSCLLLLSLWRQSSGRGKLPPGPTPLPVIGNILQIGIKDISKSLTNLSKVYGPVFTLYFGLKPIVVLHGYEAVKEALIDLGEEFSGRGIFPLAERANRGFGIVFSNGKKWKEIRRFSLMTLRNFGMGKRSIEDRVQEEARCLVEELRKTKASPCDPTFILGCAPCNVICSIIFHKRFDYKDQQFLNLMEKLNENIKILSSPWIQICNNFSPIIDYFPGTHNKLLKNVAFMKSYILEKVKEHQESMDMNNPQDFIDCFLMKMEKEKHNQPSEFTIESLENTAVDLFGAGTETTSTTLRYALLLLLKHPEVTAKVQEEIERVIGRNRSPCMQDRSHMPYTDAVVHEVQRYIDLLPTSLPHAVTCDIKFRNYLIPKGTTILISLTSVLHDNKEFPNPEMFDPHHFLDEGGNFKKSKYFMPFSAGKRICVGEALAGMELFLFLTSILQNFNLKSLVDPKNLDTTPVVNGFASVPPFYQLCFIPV

[27] = biological target: T8, Adrenergic β2 (Homo sapiens, UniProt P07550); assay: Lead Profiling Screen – Eurofins Panlabs; format: binding; details: read-out: % inh at 10 μM
T8 construct: Eurofins Panlabs (contract screen)
T8 sequence (P07550 whole entry): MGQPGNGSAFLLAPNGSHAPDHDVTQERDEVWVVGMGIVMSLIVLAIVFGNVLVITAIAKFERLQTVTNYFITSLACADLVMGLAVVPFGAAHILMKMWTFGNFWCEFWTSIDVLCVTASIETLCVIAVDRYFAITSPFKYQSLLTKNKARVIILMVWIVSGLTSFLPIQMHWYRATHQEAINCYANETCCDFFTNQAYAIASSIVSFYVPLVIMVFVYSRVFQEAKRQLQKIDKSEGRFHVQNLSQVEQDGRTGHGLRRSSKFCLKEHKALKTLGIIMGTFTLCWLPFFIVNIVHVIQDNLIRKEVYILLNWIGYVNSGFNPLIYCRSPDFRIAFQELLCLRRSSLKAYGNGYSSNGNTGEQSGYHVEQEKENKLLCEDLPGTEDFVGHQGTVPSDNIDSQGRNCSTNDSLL

[28] = system: Imidazoline I2, Central; assay: Lead Profiling Screen – Eurofins Panlabs; format: binding, rat
[29] = biological target: Melatonin MT1 (Homo sapiens, UniProt P48039); assay: Lead Profiling Screen – Eurofins Panlabs; format: binding; details: read-out: % inh at 10 μM
Sequence of Melatonin MT1 (P48039 whole entry): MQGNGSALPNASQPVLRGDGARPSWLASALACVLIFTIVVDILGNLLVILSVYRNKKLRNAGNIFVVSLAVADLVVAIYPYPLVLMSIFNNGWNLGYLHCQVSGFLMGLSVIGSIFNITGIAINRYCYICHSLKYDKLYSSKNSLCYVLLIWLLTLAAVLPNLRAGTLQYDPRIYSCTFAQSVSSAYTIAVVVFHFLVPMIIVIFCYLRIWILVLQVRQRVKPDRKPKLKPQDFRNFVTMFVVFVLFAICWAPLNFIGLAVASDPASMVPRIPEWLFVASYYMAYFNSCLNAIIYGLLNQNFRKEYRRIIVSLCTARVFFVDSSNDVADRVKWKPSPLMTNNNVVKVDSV

[30] = system: Thyroid Hormone; assay: Lead Profiling Screen – Eurofins Panlabs; format: binding, rat

For Cc1nc(C)c2c(n1)sc1c(NCc3ccc(C(C)(C)O)cc3)nccc12 [22g], the “inhibition, all ion channels” value [1] was no more than 14%, the EC50 [2] was 6.2 µM and the “human M2 %Ach Max” value [2] was “[46] %Ach Max”. The “% inh at 10 μM” value [3] was 6%, the inhibition at 10 µM [4] was 21% and the “% inh at 10 μM” value [5] was 0%. The inhibition at 10 µM [6] was -4%, the inhibition at 10 µM [7] was 28% and the inhibition at 10 µM [8] was 25%. For the same compound, the Papp A→B [9] was 47 ×10⁻⁶ cm/s, the Papp B→A [9] was 68 ×10⁻⁶ cm/s and the “% inh at 10 μM” value [10] was -2%. The inhibition at 10 µM [11] was 16%, the inhibition at 10 µM [12] was 25% and the “% inh at 10 μM” value [13] was 0%. For the same compound, the inhibition at 10 µM [14] was 6%, the inhibition at 10 µM [15] was -17% and the inhibition at 10 µM [16] was 6%. The “% inh at 10 μM” value [17] was -2%, the “% inh at 10 μM” value [18] was 9% and the “% inh at 10 μM” value [19] was 5%. The “% inh at 10 μM” value [20] was -1%, the inhibition at 10 µM [21] was 3% and the inhibition at 10 µM [22] was 6%. The inhibition at 10 µM [23] was 0%, the “% inh at 10 μM” value [24] was 4% and the inhibition at 10 µM [25] was 3%. For the same compound, the IC50 [26] was 17 µM, the inhibition at 10 µM [27] was -5% and the “% inh at 10 μM” value [28] was -1%. The inhibition at 10 µM [29] was 7% and the “% inh at 10 μM” value [30] was 1%.
